Data as given in patent US8962580B2, “Chemical modifications of monomers and oligonucleotides with cycloaddition” (Alnylam Pharmaceuticals, Inc., priority 2008, dated 2015).
Read-outs that look alike come from different tables or passages of the source. {L125} = ligand L125 of the publication, structure not given; d = 2'-deoxy (DNA); m = 2'-O-methyl; r = 2'-OH (RNA)

Test system: firefly luciferase gene
Assay: Dual-luciferase assay for RNA interfering evaluation
Type: cell-based
Details: for IC50: read-out: IC 50 Values
Description: 1. Dual-Luciferase Assay for RNA Interfering Evaluation
Modified RNAs obtained by solid-phase synthesis and click reactions were evaluated in RNA interfering in dual-luciferase assays. Duplexes were prepared by heating at 95° C. for 2 min and cooling to room temperature for 2 hours in 1X Phosphate buffered saline. (Table 12-14).
The ability of modified siRNAs to suppress gene expression was studied by a dual-luciferase assay using a pGL4 vector (Promega), which contained the Renilla and firefly luciferase genes. The siRNA sequences were designed to target the firefly luciferase gene. Stably transfected HeLa cells were then transfected with the indicated amounts of siRNAs, and the signals of firefly luciferase were normalized to those of renilla luciferase. HeLa SS6 cells were stably transfected with plasmids encoding firefly (target) and Renilla (control) luciferases.
RNA interference methods: Hela cells were grown at 37° C., 5% CO2 in Dulbecco's modified Eagles's medium (DMEM, GIBCO) supplemented with 10% fetal bovine serum (FBS) and 1% antibiotic. The cells were maintained in the exponential growth phase. The cells were then plated in 96-well plates (0.1 mL medium per well) to reach about 90% confluence at transfection. Transfection was allowed to proceed for 24 hr at 37° C. and on day 2 the culture medium was changed to OPTIMEM 1, a reduced serum media (GIBCO). Two luciferase plasmids, Renilla luciferase (pRL-CMV) and firefly luciferase (pGL3) from Promega, were used as control and reporter, respectively. Transfection of siRNAs was carried out with Lipofectamine 2000 (Invitrogen) as described by the manufacturer for adherent cell lines. The final volume was 150 uL per well. On day 2 cells are transfected with, firefly luciferase targeting, siRNA of varying concentrations ranging from 2 pM to 8 nM mediated by Lipofectamine 2000 reagent (Invitrogen). After 24 h, cells were analyzed for both firefly and renilla luciferase expression using a plate luminometer with a delay time of 2 s and an integrate time of 10 s. (VICTOR2, PerkinElmer, Boston, Mass.) and the Dual-Glo Luciferase Assay kit (Promega), FIG. 24. Firefly/renilla luciferase expression ratios were used to determine percent gene silencing relative to untreated (no siRNA) controls. Values generated represent the mean of triplicates.
The screening process began with a primary screen where all the compounds were screened against the parent unmodified duplex as a comparison. […] The final set of compounds was compared to one of our best modifications AD3202 and it can be seen that these compounds match up to AD 3202 in potency, however the exact mechanism by which the Uda modification contributes to improved activity is to be determined through further studies.
Dual HeLa (HeLa cells transfected with PGL4 plasmid for luciferase expression)
Tissue culture medium, trypsin and Lipofectamine-2000—purchased from Invitrogen (Carlsbad, Calif.).
DMEM supplemented with 10% fetal bovine serum, 1% antibiotic solution.
siRNA treatment was performed using Opti-MEM (Invitrogen) containing 1 mg/ml Lipofectamine2000
DMEM without phenol red, Promega Dual Glo Luciferase Assay kit, 0.25% Trypsin (Invitrogen).

[1] = Table 13 (Part II), stably transfected HeLa cells, Lipofectamine 2000, 24 h, firefly/renilla luciferase ratio
[2] = Table 12 (Part I), stably transfected HeLa cells, Lipofectamine 2000, 24 h, firefly/renilla luciferase ratio

Row | Substance | IC50 [1] [nM] | IC50 [2] [nM] | further results
1 | AD-1000: parent unmodified siRNA duplex: sense 1000 CUUACGCUGAGUACUUCGAdTdT, antisense 1001 UCGAAGUACUCAGCGUAAGdTdT (sense CUUACGCUGAGUACUUCGATT; antisense UCGAAGUACUCAGCGUAAGTT; sugars from the 5' end r19 d2, backbone not given here) [reference compound] | 0.38 | – | IC50 (Table 14 (Part III), stably transfected HeLa cells, Lipofectamine 2000, 24 h, firefly/renilla luciferase ratio): 0.326 nM; IC50 (Table 15 (Part IV), selected potent duplexes, secondary screen / head to head comparison): 0.242 nM
2 | AD-20156: siRNA duplex: sense 33031.1 CUUACGCUGAGUACUUCGAdT(Uda2p), antisense 1001; Uda2p-3′end (sense CUUACGCUGAGUACUUCGAT; antisense UCGAAGUACUCAGCGUAAGTT; Uda2p 3' end on sense, chemistry not fully specified) | 1.18 | – | –
3 | AD-20157: siRNA duplex: sense 33032.1 CUUACGCUGAG(Uda)ACUUCGAdT(Uda2p), antisense 1001; U12-->Uda, Uda2p-3′end (sense CUUACGCUGAGUACUUCGAT; antisense UCGAAGUACUCAGCGUAAGTT; U12 Uda, Uda2p 3' end on sense, chemistry not fully specified) | – | – | IC 50 Values (nM) [1]: NA—out
4 | AD-20158: siRNA duplex: sense 33033.1 C(Uda)UACGCUGAGUACUUCGAdT(Uda2p), antisense 1001; U2-->Uda, Uda2p-3′end (sense CUUACGCUGAGUACUUCGAT; antisense UCGAAGUACUCAGCGUAAGTT; U2 Uda, Uda2p 3' end on sense, chemistry not fully specified) | 1.5 | – | Fold Increase in activity as compared to parent (Table 13 (Part II), parent AD-1000): 2 fold
5 | AD-20201: siRNA duplex: sense 36862 CUUACGCUGAGUACUUCGAdTdTL125, antisense 1001; 3′ L125 (sense CUUACGCUGAGUACUUCGATT; antisense UCGAAGUACUCAGCGUAAGTT; 3' L125 on sense, chemistry not fully specified) | – | 0.922 | –
6 | AD-20202: siRNA duplex: sense 37075 CUUACGCUGAGUACUUCGAdTdT(T1y), antisense 1001; 3′ (Tly) (sense CUUACGCUGAGUACUUCGATTT; antisense UCGAAGUACUCAGCGUAAGTT; 3' (Tly) on sense, chemistry not fully specified) | – | 1.12 | –
7 | AD-20203: siRNA duplex: sense 37077 CUUACGCUGAGUACUUCGAdTdT(T31y), antisense 1001; 3′ (T31y) (sense CUUACGCUGAGUACUUCGATT; antisense UCGAAGUACUCAGCGUAAGTT; 3' (T31y) on sense, chemistry not fully specified) | – | 1.41 | –
8 | AD-20321: siRNA duplex: sense 38103.1 AAcGcuGGGcGuuAAucAAdTdTL125 (2′OMe-all Py and 3′ L125), antisense 24599 UUGAUuAACGCCcAGCGUUdTsdT (sense AACGCUGGGCGUUAAUCAATT; antisense UUGAUUAACGCCCAGCGUUTT; sense: DNA at T, 2'-O-methyl at CU, RNA at AG, 3' {L125}, backbone not given here; antisense: sugars from the 5' end rrrrrmrrrrrrmrrrrrrdd, backbone not given here) | – | – | IC 50 Values (nM) [2]: out of range
